Laboratory results taken from patent US7074777B2, “Vitamin D derivatives” (Chugai Seiyaku Kabushiki Kaisha, priority 2000, dated 2006).

Key:
[1] = Test Example 1: ionized calcium level in blood after single percutaneous application to dorsal skin of mice (ion selective electrode method); type: in vivo; conditions: Balb/c mice, dosage 1000 μg/kg, blood drawn two days after application, mean of 3 mice
Procedure: Active vitamin D3 (1α,25 (OH)2vitamin D3) dissolved in ethanol at the concentration of 125 μg/ml, Compounds 1 to 13 (the vitamin D derivatives obtained in the above Examples) dissolved in ethanol at the concentration of 500 μg/ml and ethanol alone (as control) were percutaneously applied once to the dorsal skin of respective 8-week-old male Balb/c mice (approximately 1.5×2.0 cm^2). The dosage was 2 ml/kg and each mouse received a necklace to prevent ingestion. On the next day, the application areas were cleaned and necklaces were removed from the mice. Two days after the application, blood was drawn from each mouse in order to measure the ionized calcium level in the blood by an ion selective electrode method. In this experiment, each group contained 3 mice. The ionized calcium levels in the Table indicate the mean values.

[2] = test system: Keratinocytes derived from human neonatal foreskin; assay: Test Example 2: inhibition of human keratinocyte proliferation ([3H] thymidine uptake); type: cell-based; conditions: relative value = [IC50 (mol/l) of 1α,25(OH)2vitamin D3]/[IC50 (mol/l) of each Compound]
Procedure: Keratinocytes derived from human neonatal foreskin (Clonetics) were inoculated in 96 well-plates (COSTAR 3595) at 2×10^3 cells/well. Active vitamin D3 (1α,25(OH)2D3) and Compounds 1 to 13 at various concentrations were added to respective wells and cultured at 2×10^3 cells/200 μl/well in KGM-2 medium for 3 days at 37° C. in 5% CO2 and 95% air. After adding [^3H] thymidine at 7.4 kBq/well, the cell culture was continued for further 1 day. After washing the wells with phosphate buffer free of calcium and magnesium (Dulbecco PBS(−), NISSUI, code 05913, pH 7.3 to 7.65) once, the cells were stripped using 0.25% […]. The [^3H] thymidine uptake of the cells was measured by a liquid scintillation counter (1450 microbeta, WALLAC). In the Table, the inhibition of human keratinocyte proliferation is expressed as follows: the relative value of each Compound with respect to active vitamin D3=[IC50 (mol/l) of 1α,25(OH)2vitamin D3]/[IC50 (mol/l) of each Compound]

| Compound | Ionized Ca level [1] [mmol/L] | Human keratinocyte proliferation inhibition (relative value) [2] |
| --- | --- | --- |
| C=C1C(=CC=C2CCCC3(C)C(COCC#CC(C)(C)O)=CCC23)CC(O)CC1O (stereo not drawn) [Compound 5, 1α,3β-dihydroxy-17-(4-hydroxy-4-methyl-2-pentynyloxymethyl)-9,10-secoandrosta-5,7,10(19),16-tetraene] | 1.63 | 1.8 |
| C=C1C(=CC=C2CCCC3(C)C(COCCC(C)(C)O)=CCC23)CC(O)CC1O (stereo not drawn) [Compound 1, 1α,3β-dihydroxy-17-(3-hydroxy-3-methylbutoxymethyl)-9,10-secoandrosta-5,7,10(19),16-tetraene] | 1.52 | 0.6 |
| 1α, 25(OH)2D3 |  | 1.0 |
| C=C1C(=CC=C2CCCC3(C)C(COCCCCC(C)(C)O)=CCC23)CC(O)CC1O (stereo not drawn) [Compound 3, 1α,3β-dihydroxy-17-(5-hydroxy-5-methylhexyloxymethyl)-9,10-secoandrosta-5,7,10(19),16-tetraene] | 1.81 | 1.2 |
| C=C1C(=CC=C2CCCC3(C)C(COCCCC(O)(CC)CC)=CCC23)CC(O)CC1O (stereo not drawn) [Compound 2, 17-(4-ethyl-4-hydroxyhexyloxymethyl)-1α,3β-dihydroxy-9,10-secoandrosta-5,7,10(19),16-tetraene] | 2.12 | 1.9 |
| C=C1C(=CC=C2CCCC3(C)C(COCCCC(C)(C)O)=CCC23)CC(O)CC1O (stereo not drawn) [Compound 4, 1α,3β-dihydroxy-17-(4-hydroxy-4-methylpentyloxymethyl)-9,10-secoandrosta-5,7,10(19),16-tetraene] | 1.68 | 0.7 |
